Results on 31 compounds are retold here after patent US20210122763A1, “OGA INHIBITOR COMPOUNDS” (Janssen Pharmaceutica NV, priority 2018, published 2021).

Assay [1] concerns the target T1, recombinant human Meningioma Expressed Antigen 5 (MGEA5), also referred to as O-GlcNAcase (OGA) (Homo sapiens, UniProt O60502).
T1 construct: Full length OGA enzyme was purchased at OriGene (cat #TP322411); purchased OriGene TP322411
T1 sequence (O60502 1-916): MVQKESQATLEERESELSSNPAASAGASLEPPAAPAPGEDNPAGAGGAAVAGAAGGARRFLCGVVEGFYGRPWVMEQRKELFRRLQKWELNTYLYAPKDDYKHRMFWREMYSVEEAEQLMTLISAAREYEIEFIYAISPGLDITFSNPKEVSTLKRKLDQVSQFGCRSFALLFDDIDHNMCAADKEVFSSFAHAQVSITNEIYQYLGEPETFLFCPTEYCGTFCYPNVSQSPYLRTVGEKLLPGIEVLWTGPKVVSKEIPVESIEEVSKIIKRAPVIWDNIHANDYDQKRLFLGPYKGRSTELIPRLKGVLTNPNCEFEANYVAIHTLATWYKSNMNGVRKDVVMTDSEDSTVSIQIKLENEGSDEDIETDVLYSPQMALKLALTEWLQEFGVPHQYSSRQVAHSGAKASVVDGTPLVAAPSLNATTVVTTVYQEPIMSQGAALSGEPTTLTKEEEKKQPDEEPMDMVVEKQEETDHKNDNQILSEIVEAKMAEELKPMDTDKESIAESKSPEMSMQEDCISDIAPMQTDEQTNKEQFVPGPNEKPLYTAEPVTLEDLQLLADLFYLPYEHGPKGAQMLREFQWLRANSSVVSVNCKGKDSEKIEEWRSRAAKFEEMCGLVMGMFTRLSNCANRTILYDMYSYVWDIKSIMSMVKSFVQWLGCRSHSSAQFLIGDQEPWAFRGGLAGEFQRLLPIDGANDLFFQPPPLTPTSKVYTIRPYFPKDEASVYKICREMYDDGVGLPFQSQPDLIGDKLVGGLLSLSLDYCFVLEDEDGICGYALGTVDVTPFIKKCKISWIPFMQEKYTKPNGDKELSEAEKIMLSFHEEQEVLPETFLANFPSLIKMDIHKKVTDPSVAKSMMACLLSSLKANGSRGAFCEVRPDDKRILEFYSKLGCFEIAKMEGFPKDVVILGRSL
Nature of the assay: OGA biochemical assay (inhibition of FM-GlcNAc hydrolysis, fluorescence). The conditions noted are these: for Emax: read-out: Enzymatic Emax (%); for IC50: read-out: Enzymatic hOGA, pIC50 (converted). In outline: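 Full-length OGA at 2 nM was pre-incubated 60 min at room temperature with compound, then FM-GlcNAc at 100 uM final was added in citrate/phosphate buffer pH 7.2 with 0.005% Tween-20. After 6 h at room temperature, carbonate pH 11.0 stopped the reaction. Fluorescence read at 485/538 nm; IC50 and Hill coefficient from curve fit against no-inhibitor and saturating-standard controls.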

Another assay addresses T2, OGA (Homo sapiens, UniProt O60502).
T2 construct: HEK293 cells inducible for P301L mutant human Tau (isoform 2N4R) were established at Janssen; endogenous in cells; host or cells: HEK293 cells inducible for P301L mutant human Tau (2N4R)
T2 sequence (O60502 1-916): T1 sequence (O60502 1-916)
Nature of the assay: OGA cellular assay (ICC detection of O-GlcNAcylated proteins in HEK293 cells inducible for P301L mutant human Tau). In kind it is cell-based. The following applies: 6 hours incubation; for Emax: HEK293, HEK293 cells inducible for P301L mutant human Tau, maximum = Thiamet G 200 uM; for EC50: HEK293 cells inducible for P301L mutant human Tau, read-out: Cellular hOGA, pEC50 (converted). In short, it runs like this: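 HEK293 cells with inducible P301L 2N4R Tau, seeded in low-glucose medium, were exposed to compounds for 6 hours (0.2% DMSO), then PFA-fixed and stained with CTD110.6. Imaging intensity at 488 nm measured O-GlcNAcylation, with Hoechst nuclei counts for toxicity. IC50s came from non-linear regression, with Thiamet G at 200 uM as maximum inhibition.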

For the compound `CC(c1ccc2c(n1)OCCO2)N1CCC(Oc2ccc(OC(F)(F)F)cn2)CC1` (stereo not shown) [Compound 96], in assay [1], the Emax is 99% and the IC50 was 63.1 nM. For the same compound, on OGA, the Emax was determined as 41% and the EC50 was over 1000 nM.

With `COc1cc(OC2CCN(C(C)c3ccc4sc(C)nc4n3)CC2)cc(C)n1` (stereo not shown) [Compound 16], in assay [1], the Emax stood at 99% and the IC50 was 25.1 nM. On OGA, the Emax was 91% and the EC50 was 126 nM.

For the compound `Cc1cc(OC2CCN([C@H](C)c3nc4nc(C)sc4cc3F)CC2)cc(C)n1` (single isomer, unassigned) [Compound 82], in assay [1], the Emax is 97% and the IC50 was 631 nM. Besides, at OGA, the Emax is 18% and the EC50 is over 1000 nM.

Consider `Cc1cc(OC2CCN([C@@H](C)c3nc4c(cc3F)CCO4)CC2)cc(C)n1` (single isomer, unassigned) [Compound 145], for which, in assay [1], the Emax came to 86% and the IC50 is 1580 nM. At OGA, the Emax was found to be 8% and the EC50 was over 1000 nM.

Consider `Cc1cc(OC2CCN(C(C)c3nc4nc(C)sc4cc3F)CC2)nc(C)n1` (stereo not shown) [Compound 33], for which, in assay [1], the Emax worked out at 100% and the IC50 was 15.8 nM. Further, at OGA, the Emax is 65% and the EC50 was 251 nM.

For `Cc1cc(OC2CCN(C(C)c3nc4nc(C)sc4cc3F)CC2)cc(C)n1` (stereo not shown) [Compound 32], in assay [1], the Emax was 100% and the IC50 was 15.8 nM. On OGA, the Emax was found to be 72% and the EC50 was 79.4 nM.

In the case of `Cc1cc(OC2CCN(C(C)c3ccc4c(n3)OCCO4)CC2)ccn1` (stereo not shown) [Compound 45], in assay [1], the Emax came to 96% and the IC50 was 100 nM. Further, at OGA, the Emax amounted to 59% and the EC50 was 631 nM.

Consider `Cc1cc(OC2CCN(C(C)c3ccc4c(c3)OCCO4)CC2)cc(C)n1` (stereo not shown) [Compound 25], for which, in assay [1], the Emax was 96% and the IC50 was 501 nM. Also, on OGA, the Emax is 56% and the EC50 was 631 nM.

As to `CC(c1nc2c(cc1F)OCCO2)N1CCC(Oc2ccc(C(F)(F)F)nn2)CC1` (stereo not shown) [Compound 39], in assay [1], the Emax is 101% and the IC50 was 20 nM. At OGA, the Emax was determined as 73% and the EC50 is 316 nM.

For the compound `Cc1cc(OC2CCN(C(C)c3ccc4c(n3)OCCO4)CC2)c(F)c(C)n1` (stereo not shown) [Compound 121], in assay [1], the Emax was 96% and the IC50 is 100 nM. Further, at OGA, the Emax was 59% and the EC50 is 398 nM.

Consider `Cc1cc(OCC2CCN(C(C)c3ccc4c(n3)OCCO4)CC2)cc(C)n1` (stereo not shown) [Compound 75], for which, in assay [1], the Emax worked out at 99% and the IC50 was 398 nM. On OGA, the Emax is 39% and the EC50 is over 1000 nM.

Take `CC(c1ccc2c(n1)OCCO2)N1CCC(Oc2cnc(C3CCC3)nc2)CC1` (stereo not shown) [Compound 163]: in assay [1], the Emax came out at 92% and the IC50 was 126 nM. On OGA, the Emax turned out to be 34% and the EC50 is over 1000 nM.

As to `COc1cc(OC2CCN([C@@H](C)c3nc4nc(C)sc4cc3F)CC2)cc(C)n1` (single isomer, unassigned) [Compound 81], in assay [1], the Emax is 93% and the IC50 was 1.58 nM. For the same compound, on OGA, the Emax was 87% and the EC50 was 31.6 nM.

As for `CC(c1nc2c(cc1F)OCCO2)N1CCC(Oc2ccc(C(F)(F)F)cn2)CC1` (stereo not shown) [Compound 158], in assay [1], the Emax is 99% and the IC50 was 15.8 nM. In addition, on OGA, the Emax is 77% and the EC50 is 251 nM.

In the case of `CC(c1ccc2c(n1)OCCO2)N1CCC(Oc2cnc(C3CC3)nc2)CC1` (stereo not shown) [Compound 120], in assay [1], the Emax turned out to be 98% and the IC50 was 50.1 nM. In addition, on OGA, the Emax stood at 87% and the EC50 is 251 nM.

Take `Cc1cc(OC2CCN(C(C)c3ccc4sc(C)nc4n3)CC2)cc(C)n1` (stereo not shown) [Compound 7]: in assay [1], the Emax is 100% and the IC50 was 63.1 nM. Moreover, on OGA, the Emax stood at 71% and the EC50 was 398 nM.

Turning to `Cc1cc(OC2CCN(C(C)c3nc4c(cc3F)OCCO4)CC2)cc(C(F)F)n1` (stereo not shown) [Compound 63], in assay [1], the Emax was 96% and the IC50 was 10 nM. Besides, on OGA, the Emax was 80% and the EC50 was 79.4 nM.

For the compound `Cc1ccc(OC2CCN(C(C)c3nc4c(cc3F)OCCO4)CC2)cn1` (stereo not shown) [Compound 94], in assay [1], the Emax worked out at 96% and the IC50 was 10 nM. Further, on OGA, the Emax was determined as 82% and the EC50 was 95.5 nM.

As for `Cc1cc(OC2CCN(C(C)c3ccc4c(n3)OCCO4)CC2)cc(C(F)F)n1` (stereo not shown) [Compound 64], in assay [1], the Emax worked out at 94% and the IC50 is 31.6 nM. At OGA, the Emax is 61% and the EC50 was 316 nM.

In the case of `Cc1cc(COC2CCN(C(C)c3ccc4c(n3)OCCO4)CC2)cc(C)n1` (stereo not shown) [Compound 89], in assay [1], the Emax was 97% and the IC50 is 126 nM. For the same compound, at OGA, the Emax was found to be 63% and the EC50 was about 501 nM.

Consider `CC(C)c1ncc(OC2CCN(C(C)c3ccc4c(n3)OCCO4)CC2)cn1` (stereo not shown) [Compound 119], for which, in assay [1], the Emax came out at 100% and the IC50 is 63.1 nM. On OGA, the Emax is 68% and the EC50 is 331 nM.

In the case of `Cc1cc(C(F)(F)F)cc(OC2CCN(C(C)c3nc4c(cc3F)OCCO4)CC2)n1` (stereo not shown) [Compound 48], in assay [1], the Emax is 98% and the IC50 is 20 nM. Further, on OGA, the Emax came out at 84% and the EC50 was 251 nM.

`CC(c1ccc2c(n1)OCCO2)N1CCC(C)(Oc2ccc(F)cc2)CC1` (stereo not shown) [Compound 131]: in assay [1], the Emax came out at 70% and the IC50 was 3980 nM. Moreover, at OGA, the Emax was -4% and the EC50 was over 1000 nM.

As for `Cc1ccnc(OC2CCN(C(C)c3nc4c(cc3F)OCCO4)CC2)c1` (stereo not shown) [Compound 161], in assay [1], the Emax came out at 97% and the IC50 was 20 nM. In addition, at OGA, the Emax was found to be 83% and the EC50 was 158 nM.

For the compound `Cc1cc(OC2CCN(C(C)c3nc4c(cc3F)OCCO4)CC2)c(Cl)c(C)n1` (stereo not shown) [Compound 65], in assay [1], the Emax was 99% and the IC50 was 12.6 nM. In addition, at OGA, the Emax is 101% and the EC50 is 63.1 nM.

As for `Cc1cccc(OC2CCN(C(C)c3ccc4c(n3)OCCO4)CC2)n1` (stereo not shown) [Compound 46], in assay [1], the Emax came to 98% and the IC50 is 158 nM. Further, at OGA, the Emax amounted to 33% and the EC50 was over 1000 nM.

Regarding `Cc1cc(OC2CCN(C(C)c3ccc4c(n3)OCCO4)CC2)cc(C(C)C)n1` (stereo not shown) [Compound 130], in assay [1], the Emax worked out at 100% and the IC50 is 39.8 nM. Also, at OGA, the Emax came to 59% and the EC50 is 245 nM.

Turning to `Cc1cc(OC2(CF)CCN(C(C)c3ccc4c(n3)OCCO4)CC2)cc(C)n1` (stereo not shown) [Compound 132], in assay [1], the Emax is 63% and the IC50 was 6310 nM. Also, at OGA, the Emax came out at 24% and the EC50 is over 1000 nM.

As to `Cc1cc(C)nc(OC2CCN(C(C)c3ccc4c(n3)OCCO4)CC2)c1` (stereo not shown) [Compound 71], in assay [1], the Emax amounted to 100% and the IC50 was 126 nM. Further, at OGA, the Emax was determined as 35% and the EC50 is over 1000 nM.

Consider `CC(c1nc2c(cc1F)OCCO2)N1CCC(Oc2cnc(C(F)(F)F)nc2)CC1` (stereo not shown) [Compound 168], for which, in assay [1], the Emax came out at 96% and the IC50 was 12.6 nM. Besides, at OGA, the Emax was determined as 75% and the EC50 was 200 nM.

With `COc1cnccc1OC1CCN(C(C)c2ccc3c(n2)OCCO3)CC1` (stereo not shown) [Compound 98], in assay [1], the Emax was found to be 94% and the IC50 was 200 nM. For the same compound, at OGA, the Emax was found to be 47% and the EC50 was 501 nM.

By Emax is commonly meant the size of the effect at its maximum, as opposed to the concentration needed.
